pKi: −log10 of the molar value. Like-named read-outs stand apart in the source and are kept apart here.
What was measured:
PSMA+PiP tumors = details: cited from earlier work; for uptake in PSMA+ PiP tumors (in words) / renal uptake (in words): radiolabeled version
PSMA = PSMA (Homo sapiens, UniProt Q04609); details: read-out: Ki (PSMA inhibition); cited from earlier work
[1] = mouse treated with 1.5 MBq; from Kiess et al., 2016; cited from earlier work
[2] = system: PSMA+ PC-3 PiP and PSMA− PC-3 flu tumors; test: Biodistribution of [177Lu]VK-03-27 without and with co-injection of competing inhibitor VK-03-27; type: in vivo, mice; details: 2 Hour
[3] = system: PSMA+ PC-3 PiP and PSMA− PC-3 flu tumors; details: for Biodistribution: Blood / Biodistribution: Flu tumor / Biodistribution: Lacrimal gland / Biodistribution: PiP tumor / Biodistribution: Salivary gland / Biodistribution: kidneys / Biodistribution: spleen / Biodistribution: stomach: without competitive inhibitor

Chain of PSMA (Q04609 whole entry): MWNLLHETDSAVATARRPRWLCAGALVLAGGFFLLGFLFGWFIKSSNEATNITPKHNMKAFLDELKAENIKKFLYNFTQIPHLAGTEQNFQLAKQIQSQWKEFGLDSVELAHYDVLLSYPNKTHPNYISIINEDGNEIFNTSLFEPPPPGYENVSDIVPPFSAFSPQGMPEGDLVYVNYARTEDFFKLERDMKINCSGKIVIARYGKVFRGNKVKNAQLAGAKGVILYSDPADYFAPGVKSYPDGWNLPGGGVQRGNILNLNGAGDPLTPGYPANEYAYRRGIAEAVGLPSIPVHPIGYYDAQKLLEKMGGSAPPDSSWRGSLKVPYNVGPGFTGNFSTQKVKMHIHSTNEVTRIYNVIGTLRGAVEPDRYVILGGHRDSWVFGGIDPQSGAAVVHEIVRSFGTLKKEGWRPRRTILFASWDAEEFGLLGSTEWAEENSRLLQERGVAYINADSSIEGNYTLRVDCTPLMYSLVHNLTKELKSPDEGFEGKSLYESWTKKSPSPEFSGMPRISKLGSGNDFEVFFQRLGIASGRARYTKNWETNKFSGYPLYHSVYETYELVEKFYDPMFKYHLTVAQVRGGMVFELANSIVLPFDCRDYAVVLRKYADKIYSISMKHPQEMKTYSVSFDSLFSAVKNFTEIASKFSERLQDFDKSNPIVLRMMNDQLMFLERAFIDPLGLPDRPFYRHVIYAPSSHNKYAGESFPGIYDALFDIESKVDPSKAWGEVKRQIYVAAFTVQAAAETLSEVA

For `O=C(O)CC[C@H](NC(=O)N[C@@H](CCCCNC(=O)c1ccc(I)cc1)C(=O)O)C(=O)O` [YC-I-27], the “uptake and retention in kidneys” value (PSMA+PiP tumors; radiolabeled form, out to two days post-injection) is given as greater than 100 % ID/g and the “uptake in PSMA+ PiP tumors (in words)” value (PSMA+PiP tumors) is given as “high and prolonged uptake”.

For `O=C(O)CCC(OC(=O)NC(CCCCNC(=O)c1ccc(Br)cc1F)C(=O)O)C(=O)O` (stereo not drawn) [Compound 25], the “renal uptake (in words)” value (PSMA+PiP tumors) is given as “high initial renal uptake that decreases over time”, the “uptake in PSMA+ PiP tumors (in words)” value (PSMA+PiP tumors) is given as “high uptake” and the pKi (PSMA) is given as 10.00.

For `O=C(O)CC[C@H](NC(=O)NC(CCCCNC(=O)c1ccc([211At])cc1)C(=O)O)C(=O)O` (stereo partly drawn) [[^211At]DCIBzL, (2S)-2-(3-(1-Carboxy-5-(4-[^211At]astatobenzamido)pentyl)ureido)-pentanedioic acid], the renal histopathology [1] is listed as “severe renal damage”.

In the case of `O=C(O)CC[C@H](NC(=O)N[C@@H](CCC(=O)NCCc1ccc(I)cc1)C(=O)O)C(=O)O` [HS-549], the “renal uptake (in words)” value (PSMA+PiP tumors) is given as “high initial kidney uptake” and the “uptake in PSMA+ PiP tumors (in words)” value (PSMA+PiP tumors) is given as “high PSMA+Pip tumor uptake”.

In the case of `O=C([O-])CN1CCN(CC(=O)[O-])CCN(C(CCC(=O)NCCCCC(=O)N(CCCC[C@H](NC(=O)N[C@@H](CCC(=O)O)C(=O)O)C(=O)O)Cc2ccc(Br)cc2)C(=O)O)CCN(CC(=O)[O-])CC1.[177Lu+3]` (stereo partly drawn) [[^177Lu]VK-03-27], the “Biodistribution: Blood” value ([2]; No CI) was 0.43 ± 0.6 % injected dose/gram, the “Biodistribution: Flu tumor” value ([2]; No CI) was 0.4 ± 0.02 % injected dose/gram and the “Biodistribution: Lacrimal Glands” value ([2]; No CI) was 1.06 ± 0.37 % injected dose/gram. For the same compound, the “Biodistribution: PiP tumor” value ([2]; No CI) was 55 ± 12 % injected dose/gram, the “Biodistribution: Salivary gland” value ([2]; No CI) was 1.2 ± 0.25 % injected dose/gram and the “Biodistribution: kidneys” value ([2]; No CI) was 140 ± 21 % injected dose/gram. For the same compound, the “Biodistribution: spleen” value ([2]; No CI) was 8.0 ± 2.8 % injected dose/gram, the “Biodistribution: stomach” value ([2]; No CI) was 0.44 ± 0.6 % injected dose/gram and the “Biodistribution: Blood” value ([2]; co-injection 2 nmole VK-03-27) was 0.23 ± 0.5 % injected dose/gram. The “Biodistribution: Flu tumor” value ([2]; co-injection 2 nmole VK-03-27) was 0.32 ± 0.05 % injected dose/gram, the “Biodistribution: Lacrimal Glands” value ([2]; co-injection 2 nmole VK-03-27) was 0.29 ± 0.08 % injected dose/gram and the “Biodistribution: PiP tumor” value ([2]; co-injection 2 nmole VK-03-27) was 37 ± 8 % injected dose/gram. For the same compound, the “Biodistribution: Salivary gland” value ([2]; co-injection 2 nmole VK-03-27) was 0.24 ± 0.04 % injected dose/gram, the “Biodistribution: kidneys” value ([2]; co-injection 2 nmole VK-03-27) was 10.6 ± 0.6 % injected dose/gram and the “Biodistribution: spleen” value ([2]; co-injection 2 nmole VK-03-27) was 0.8 ± 0.17 % injected dose/gram. The “Biodistribution: stomach” value ([2]; co-injection 2 nmole VK-03-27) was 0.23 ± 0.09 % injected dose/gram, the “Biodistribution: Blood” value ([2]; co-injection 20 nmole VK-03-27) was 0.25 ± 0.14 % injected dose/gram and the “Biodistribution: Flu tumor” value ([2]; co-injection 20 nmole VK-03-27) was 0.27 ± 0.05 % injected dose/gram. For the same compound, the “Biodistribution: Lacrimal Glands” value ([2]; co-injection 20 nmole VK-03-27) was 0.26 ± 0.05 % injected dose/gram, the “Biodistribution: PiP tumor” value ([2]; co-injection 20 nmole VK-03-27) was 26 ± 4 % injected dose/gram and the “Biodistribution: Salivary gland” value ([2]; co-injection 20 nmole VK-03-27) was 0.16 ± 0.04 % injected dose/gram. The “Biodistribution: kidneys” value ([2]; co-injection 20 nmole VK-03-27) was 3.5 ± 0.56 % injected dose/gram, the “Biodistribution: spleen” value ([2]; co-injection 20 nmole VK-03-27) was 0.39 ± 0.18 % injected dose/gram and the “Biodistribution: stomach” value ([2]; co-injection 20 nmole VK-03-27) was 0.45 ± 0.35 % injected dose/gram. The “Biodistribution: Blood” value ([2]; co-injection 40 nmole VK-03-27) was 0.16 ± 0.03 % injected dose/gram, the “Biodistribution: Flu tumor” value ([2]; co-injection 40 nmole VK-03-27) was 0.25 ± 0.05 % injected dose/gram and the “Biodistribution: Lacrimal Glands” value ([2]; co-injection 40 nmole VK-03-27) was 0.26 ± 0.11 % injected dose/gram. For the same compound, the “Biodistribution: PiP tumor” value ([2]; co-injection 40 nmole VK-03-27) was 18 ± 3 % injected dose/gram, the “Biodistribution: Salivary gland” value ([2]; co-injection 40 nmole VK-03-27) was 0.25 ± 0.21 % injected dose/gram and the “Biodistribution: kidneys” value ([2]; co-injection 40 nmole VK-03-27) was 2.15 ± 0.1 % injected dose/gram. For the same compound, the “Biodistribution: spleen” value ([2]; co-injection 40 nmole VK-03-27) was 0.21 ± 0.1 % injected dose/gram, the “Biodistribution: stomach” value ([2]; co-injection 40 nmole VK-03-27) was 0.42 ± 0.21 % injected dose/gram and the “Biodistribution: Blood” value ([3]; 2 Hour) was 1.2 ± 1.7 % injected dose/gram. The “Biodistribution: Flu tumor” value ([3]; 2 Hour) was 5.8 ± 9.6 % injected dose/gram, the “Biodistribution: Lacrimal gland” value ([3]; 2 Hour) was 5.8 ± 9.6 % injected dose/gram and the “Biodistribution: PiP tumor” value ([3]; 2 Hour) was 50 ± 14 % injected dose/gram. For the same compound, the “Biodistribution: Salivary gland” value ([3]; 2 Hour) was 3.4 ± 4.4 % injected dose/gram, the “Biodistribution: kidneys” value ([3]; 2 Hour) was 150 ± 32 % injected dose/gram and the “Biodistribution: spleen” value ([3]; 2 Hour) was 7.4 ± 3.0 % injected dose/gram. For the same compound, the “Biodistribution: stomach” value ([3]; 2 Hour) was 0.66 ± 0.75 % injected dose/gram, the “Biodistribution: Blood” value ([3]; 8 Hour) was 0.06 ± 0.02 % injected dose/gram and the “Biodistribution: Flu tumor” value ([3]; 8 Hour) was 0.25 ± 0.05 % injected dose/gram. The “Biodistribution: Lacrimal gland” value ([3]; 8 Hour) was 0.25 ± 0.05 % injected dose/gram, the “Biodistribution: PiP tumor” value ([3]; 8 Hour) was 41 ± 9 % injected dose/gram and the “Biodistribution: Salivary gland” value ([3]; 8 Hour) was 0.34 ± 0.18 % injected dose/gram. The “Biodistribution: kidneys” value ([3]; 8 Hour) was 52 ± 18 % injected dose/gram, the “Biodistribution: spleen” value ([3]; 8 Hour) was 1.2 ± 0.6 % injected dose/gram and the “Biodistribution: stomach” value ([3]; 8 Hour) was 0.32 ± 0.31 % injected dose/gram. For the same compound, the “Biodistribution: Blood” value ([3]; 24 Hour) was 0.03 ± 0.01 % injected dose/gram, the “Biodistribution: Flu tumor” value ([3]; 24 Hour) was 0.12 ± 0.02 % injected dose/gram and the “Biodistribution: Lacrimal gland” value ([3]; 24 Hour) was 0.12 ± 0.02 % injected dose/gram. For the same compound, the “Biodistribution: PiP tumor” value ([3]; 24 Hour) was 49 ± 7 % injected dose/gram, the “Biodistribution: Salivary gland” value ([3]; 24 Hour) was 0.16 ± 0.06 % injected dose/gram and the “Biodistribution: kidneys” value ([3]; 24 Hour) was 5.9 ± 2.7 % injected dose/gram. For the same compound, the “Biodistribution: spleen” value ([3]; 24 Hour) was 0.28 ± 0.13 % injected dose/gram, the “Biodistribution: stomach” value ([3]; 24 Hour) was 0.14 ± 0.03 % injected dose/gram and the “PSMA+ PiP tumor uptake (in words)” value ([3]; Table 7) was “high PSMA+PipTumor uptake”. For the same compound, the “renal uptake (in words)” value ([3]; Table 7) was “very high early renal uptake”.

In the case of `O=C(O)CCC(OC(=O)NC(CCCCNC(=O)c1ccc(I)cc1F)C(=O)O)C(=O)O` (stereo not drawn) [Compound 24], the “renal uptake (in words)” value (PSMA+PiP tumors) is given as “high initial renal uptake that decreases over time”, the “uptake in PSMA+ PiP tumors (in words)” value (PSMA+PiP tumors) is given as “high uptake” and the pKi (PSMA) is given as 9.70.

Source: US20210338846A1, “COMPETITIVE PROSTATE-SPECIFIC MEMBRANE ANTIGEN (PSMA) BINDING AGENTS FOR REDUCTION OF NON-TARGET ORGAN UPTAKE OF RADIOLABELED PSMA INHIBITORS FOR PSMA POSITIVE TUMOR IMAGING AND RADIOPHARMACEUTICAL THERAPY” (The Johns Hopkins University, priority 2018, published 2021)
